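Briefly, cells in 96-well plates were exposed to five compound concentrations for 48 h, and endpoints were estimated by linear interpolation. GI50 is the concentration that inhibits growth by half. TGI is the concentration that stops growth completely.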
Key:
Experiment in all cases: growth of human tumour cells (NCI), 48 h
OVCAR-5 ovarian = test system: OVCAR-5 ovarian
MOLT-4 leukemia = test system: MOLT-4 leukemia
HOP-62 NSCLC = test system: HOP-62 NSCLC
EKVX NSCLC = test system: EKVX NSCLC
SK-MEL-2 melanoma = test system: SK-MEL-2 melanoma
SK-OV-3 ovarian = test system: SK-OV-3 ovarian
HCT-116 colon = test system: HCT-116 colon
KM12 colon = test system: KM12 colon
SNB-75 CNS = test system: SNB-75 CNS
LOX IMVI melanoma = test system: LOX IMVI melanoma
CAKI-1 renal = test system: CAKI-1 renal
HCC-2998 colon = test system: HCC-2998 colon
A498 renal = test system: A498 renal
SF-295 CNS = test system: SF-295 CNS
NCI-H23 lung = test system: NCI-H23 lung
UO-31 renal = test system: UO-31 renal
IGROV1 ovarian = test system: IGROV1 ovarian
HOP-92 NSCLC = test system: HOP-92 NSCLC
U251 CNS = test system: U251 CNS
BT-549 breast = test system: BT-549 breast
CCRF-CEM leukemia = test system: CCRF-CEM leukemia
SK-MEL-5 melanoma = test system: SK-MEL-5 melanoma
PC-3 prostate = test system: PC-3 prostate
NCI-H522 lung = test system: NCI-H522 lung
OVCAR-4 ovarian = test system: OVCAR-4 ovarian
T-47D breast = test system: T-47D breast
COLO 205 colon = test system: COLO 205 colon
NCI-H460 lung = test system: NCI-H460 lung
SN12C renal = test system: SN12C renal
SF-268 CNS = test system: SF-268 CNS
HCT-15 colon = test system: HCT-15 colon
786-0 renal = test system: 786-0 renal
RPMI-8226 leukemia = test system: RPMI-8226 leukemia
HL-60(TB) leukemia = test system: HL-60(TB) leukemia
RXF 393 renal = test system: RXF 393 renal
NCI-H226 lung = test system: NCI-H226 lung
SK-MEL-28 melanoma = test system: SK-MEL-28 melanoma
K-562 leukemia = test system: K-562 leukemia
HS 578T breast = test system: HS 578T breast
SW-620 colon = test system: SW-620 colon
TK-10 renal = test system: TK-10 renal
MCF7 breast = test system: MCF7 breast
SNB-19 CNS = test system: SNB-19 CNS
MDA-MB-435 = test system: MDA-MB-435
DU-145 prostate = test system: DU-145 prostate
MDA-MB-231 breast = test system: MDA-MB-231 breast
OVCAR-8 ovarian = test system: OVCAR-8 ovarian
M14 melanoma = test system: M14 melanoma
HT29 colon = test system: HT29 colon
SF-539 CNS = test system: SF-539 CNS
OVCAR-3 ovarian = test system: OVCAR-3 ovarian
MALME-3M melanoma = test system: MALME-3M melanoma
ACHN renal = test system: ACHN renal
A549 NSCLC = test system: A549 NSCLC
NCI/ADR-RES ovarian = test system: NCI/ADR-RES ovarian
SR leukemia = test system: SR leukemia
UACC-62 melanoma = test system: UACC-62 melanoma

For CCCC(=O)NC(c1ccc2c(c1)OCO2)c1ccc2cccnc2c1O (centres undefined), the GI50 (OVCAR-5 ovarian) was 2750 nM, the TGI (OVCAR-5 ovarian) was > 100000 nM and the GI50 (MOLT-4 leukemia) was 441 nM. The TGI (MOLT-4 leukemia) was > 100000 nM, the GI50 (HOP-62 NSCLC) was 1200 nM and the TGI (HOP-62 NSCLC) was > 100000 nM. The GI50 (EKVX NSCLC) was 1730 nM, the TGI (EKVX NSCLC) was 21400 nM and the GI50 (SK-MEL-2 melanoma) was 4990 nM. The TGI (SK-MEL-2 melanoma) was > 100000 nM, the GI50 (SK-OV-3 ovarian) was 1890 nM and the TGI (SK-OV-3 ovarian) was 29700 nM. It also gave a GI50 (HCT-116 colon) of 387 nM, a TGI (HCT-116 colon) of 56100 nM and a GI50 (KM12 colon) of 2090 nM. The TGI (KM12 colon) was > 100000 nM, the GI50 (SNB-75 CNS) was 2180 nM and the TGI (SNB-75 CNS) was 73000 nM. For the same compound, the GI50 (LOX IMVI melanoma) was 808 nM, the TGI (LOX IMVI melanoma) was > 100000 nM and the GI50 (CAKI-1 renal) was 669 nM. For the same compound, the TGI (CAKI-1 renal) was > 100000 nM, the GI50 (HCC-2998 colon) was 2210 nM and the TGI (HCC-2998 colon) was > 100000 nM. The GI50 (A498 renal) was 3220 nM, the TGI (A498 renal) was 12600 nM and the GI50 (SF-295 CNS) was 728 nM. For the same compound, the TGI (SF-295 CNS) was 42600 nM, the GI50 (NCI-H23 lung) was 1780 nM and the TGI (NCI-H23 lung) was > 100000 nM. It also gave a GI50 (UO-31 renal) of 557 nM, a TGI (UO-31 renal) of 18400 nM and a GI50 (IGROV1 ovarian) of 888 nM. For the same compound, the TGI (IGROV1 ovarian) was > 100000 nM, the GI50 (HOP-92 NSCLC) was 1550 nM and the TGI (HOP-92 NSCLC) was 36100 nM. The GI50 (U251 CNS) was 1150 nM, the TGI (U251 CNS) was > 100000 nM and the GI50 (BT-549 breast) was 2090 nM. For the same compound, the TGI (BT-549 breast) was 83700 nM, the GI50 (CCRF-CEM leukemia) was 460 nM and the TGI (CCRF-CEM leukemia) was > 100000 nM. The GI50 (SK-MEL-5 melanoma) was 1740 nM, the TGI (SK-MEL-5 melanoma) was 3900 nM and the GI50 (PC-3 prostate) was 729 nM. For the same compound, the TGI (PC-3 prostate) was > 100000 nM, the GI50 (NCI-H522 lung) was 1630 nM and the TGI (NCI-H522 lung) was > 100000 nM. The GI50 (OVCAR-4 ovarian) was 375 nM, the TGI (OVCAR-4 ovarian) was 6020 nM and the GI50 (T-47D breast) was 2240 nM. The TGI (T-47D breast) was > 100000 nM, the GI50 (COLO 205 colon) was 2730 nM and the TGI (COLO 205 colon) was > 100000 nM. It also gave a GI50 (NCI-H460 lung) of 527 nM, a TGI (NCI-H460 lung) of 10600 nM and a GI50 (SN12C renal) of 2280 nM. For the same compound, the TGI (SN12C renal) was > 100000 nM, the GI50 (SF-268 CNS) was 1460 nM and the TGI (SF-268 CNS) was > 100000 nM. The GI50 (HCT-15 colon) was 394 nM, the TGI (HCT-15 colon) was 24600 nM and the GI50 (786-0 renal) was 1640 nM. The TGI (786-0 renal) was 14700 nM, the GI50 (RPMI-8226 leukemia) was 1030 nM and the TGI (RPMI-8226 leukemia) was 27800 nM. It also gave a GI50 (HL-60(TB) leukemia) of 317 nM, a TGI (HL-60(TB) leukemia) of 4760 nM and a GI50 (RXF 393 renal) of 1470 nM. The TGI (RXF 393 renal) was 7540 nM, the GI50 (NCI-H226 lung) was 2210 nM and the TGI (NCI-H226 lung) was 8630 nM. For the same compound, the GI50 (SK-MEL-28 melanoma) was 3030 nM, the TGI (SK-MEL-28 melanoma) was > 100000 nM and the GI50 (K-562 leukemia) was 976 nM. The TGI (K-562 leukemia) was > 100000 nM, the GI50 (HS 578T breast) was 5760 nM and the TGI (HS 578T breast) was 78800 nM. The GI50 (SW-620 colon) was 1200 nM, the TGI (SW-620 colon) was > 100000 nM and the GI50 (TK-10 renal) was 2970 nM. For the same compound, the TGI (TK-10 renal) was > 100000 nM, the GI50 (MCF7 breast) was 748 nM and the TGI (MCF7 breast) was > 100000 nM. For the same compound, the GI50 (SNB-19 CNS) was 2280 nM, the TGI (SNB-19 CNS) was > 100000 nM and the GI50 (MDA-MB-435) was 3700 nM. For the same compound, the TGI (MDA-MB-435) was > 100000 nM, the GI50 (DU-145 prostate) was 2000 nM and the TGI (DU-145 prostate) was > 100000 nM. For the same compound, the GI50 (MDA-MB-231 breast) was 1640 nM, the TGI (MDA-MB-231 breast) was > 100000 nM and the GI50 (OVCAR-8 ovarian) was 1480 nM. The TGI (OVCAR-8 ovarian) was > 100000 nM, the GI50 (M14 melanoma) was 1080 nM and the TGI (M14 melanoma) was 20600 nM. For the same compound, the GI50 (HT29 colon) was 3920 nM, the TGI (HT29 colon) was > 100000 nM and the GI50 (SF-539 CNS) was 1410 nM. The TGI (SF-539 CNS) was > 100000 nM, the GI50 (OVCAR-3 ovarian) was 427 nM and the TGI (OVCAR-3 ovarian) was 15400 nM. The GI50 (MALME-3M melanoma) was 2170 nM, the TGI (MALME-3M melanoma) was > 100000 nM and the GI50 (ACHN renal) was 466 nM. For the same compound, the TGI (ACHN renal) was > 100000 nM, the GI50 (A549 NSCLC) was 2270 nM and the TGI (A549 NSCLC) was > 100000 nM. It also gave a GI50 (NCI/ADR-RES ovarian) of 443 nM, a TGI (NCI/ADR-RES ovarian) of 16600 nM and a GI50 (SR leukemia) of 402 nM. For the same compound, the TGI (SR leukemia) was > 100000 nM, the GI50 (UACC-62 melanoma) was 1300 nM and the TGI (UACC-62 melanoma) was 7300 nM.
